Source: ChEMBL document CHEMBL3885861, “Open TG-GATES”

Species on record: Rattus norvegicus
Assay: Open TG-GATES - Regimen: Single
Assay type: toxicity, organism-based, Sprague-Dawley
Design: regimen Single, gender Male, age 6 weeks
Conditions: in vivo, po, 30 mg/kg, route gavage, dose level High; for APTT / Bas / Eos / Fbg / Hb / Ht / Lym / MCH / MCHC / MCV / Mono / Neu / PT / Plat / RBC / Ret / WBC: tissue Blood; for KIDNEY_L / KIDNEY_R / KIDNEY_TOTAL: tissue Kidney; for LIVER: tissue Liver; for A/G / ALP / ALT / AST / BUN / CRE / Ca / Cl / DBIL / GLC / IP / K / LDH / Na / PL / RALB / TBIL / TC / TG / TP / gamma-GTP: tissue Plasma

SMILES: Nc1c2c(nc3ccccc13)CCCC2 [TACRINE]
- TERMINAL_BW (3 h): 205 g
- APTT (3 h): 21.4 s
- Bas (3 h): 0%
- Eos (3 h): 0.6%
- Fbg (3 h): 313.8 mg/dL
- Hb (3 h): 13.4 g/dL
- Ht (3 h): 39.4%
- Lym (3 h): 71%
- MCH (3 h): 21.4 pg
- MCHC (3 h): 34.1%
- MCV (3 h): 62.7 fL
- Mono (3 h): 2.6%
- Neu (3 h): 25%
- PT (3 h): 16.4 s
- Plat (3 h): 124.7 x10_4/uL
- RBC (3 h): 628.2 x10_4/ul
- Ret (3 h): 8.7%
- WBC (3 h): 55.6 x10_2/uL
- KIDNEY_L (3 h): 0.9 g
- KIDNEY_R (3 h): 0.9 g
- KIDNEY_TOTAL (3 h): 1.9 g
- LIVER (3 h): 9 g
- A/G (3 h): 1.3
- ALP (3 h): 1523.2 IU/L
- ALT (3 h): 49.8 IU/L
- AST (3 h): 152.2 IU/L
- BUN (3 h): 12.6 mg/dL
- CRE (3 h): 0.2 mg/dL
- Ca (3 h): 10.4 mg/dL
- Cl (3 h): 103.8 meq/L
- DBIL (3 h): 0 mg/dL
- GLC (3 h): 269.6 mg/dL
- IP (3 h): 9.9 mg/dL
- K (3 h): 3.6 meq/L
- LDH (3 h): 369.4 IU/L
- Na (3 h): 139.2 meq/L
- PL (3 h): 142.6 mg/dL
- RALB (3 h): 3.2 g/dL
- TBIL (3 h): 0.022 mg/dL
- TC (3 h): 78 mg/dL
- TG (3 h): 69.8 mg/dL
- TP (3 h): 5.7 g/dL
- gamma-GTP (3 h): 1.2 IU/L
- TERMINAL_BW (6 h): 199.4 g
- APTT (6 h): 20.8 s
- Bas (6 h): 0%
- Eos (6 h): 0.4%
- Fbg (6 h): 327.2 mg/dL
- Hb (6 h): 14 g/dL
- Ht (6 h): 40.4%
- Lym (6 h): 67%
- MCH (6 h): 21.1 pg
- MCHC (6 h): 34.6%
- MCV (6 h): 61 fL
- Mono (6 h): 3%
- Neu (6 h): 29%
- PT (6 h): 15.7 s
- Plat (6 h): 124.5 x10_4/uL
- RBC (6 h): 662.6 x10_4/ul
- Ret (6 h): 7.7%
- WBC (6 h): 64.5 x10_2/uL
- KIDNEY_L (6 h): 0.9 g
- KIDNEY_R (6 h): 0.9 g
- KIDNEY_TOTAL (6 h): 1.8 g
- LIVER (6 h): 8.9 g
- A/G (6 h): 1.2
- ALP (6 h): 1476.6 IU/L
- ALT (6 h): 51.8 IU/L
- AST (6 h): 199.8 IU/L
- BUN (6 h): 13.4 mg/dL
- CRE (6 h): 0.2 mg/dL
- Ca (6 h): 10.6 mg/dL
- Cl (6 h): 106.4 meq/L
- DBIL (6 h): 0 mg/dL
- GLC (6 h): 221.4 mg/dL
- IP (6 h): 9.3 mg/dL
- K (6 h): 3.9 meq/L
- LDH (6 h): 347.2 IU/L
- Na (6 h): 142 meq/L
- PL (6 h): 146.4 mg/dL
- RALB (6 h): 3.3 g/dL
- TBIL (6 h): 0.02 mg/dL
- TC (6 h): 81.6 mg/dL
- TG (6 h): 45.4 mg/dL
- TP (6 h): 6 g/dL
- gamma-GTP (6 h): 1 IU/L
- TERMINAL_BW (9 h): 202.2 g
- APTT (9 h): 21 s
- Bas (9 h): 0%
- Eos (9 h): 0.4%
- Fbg (9 h): 339.6 mg/dL
- Hb (9 h): 13.4 g/dL
- Ht (9 h): 38.9%
- Lym (9 h): 53%
- MCH (9 h): 21 pg
- MCHC (9 h): 34.3%
- MCV (9 h): 61.3 fL
- Mono (9 h): 3%
- Neu (9 h): 43%
- PT (9 h): 15.6 s
- Plat (9 h): 128.9 x10_4/uL
- RBC (9 h): 634.8 x10_4/ul
- Ret (9 h): 8.3%
- WBC (9 h): 78.6 x10_2/uL
- KIDNEY_L (9 h): 0.9 g
- KIDNEY_R (9 h): 0.9 g
- KIDNEY_TOTAL (9 h): 1.8 g
- LIVER (9 h): 8.4 g
- A/G (9 h): 1.3
- ALP (9 h): 1511.6 IU/L
- ALT (9 h): 64.4 IU/L
- AST (9 h): 283 IU/L
- BUN (9 h): 11.6 mg/dL
- CRE (9 h): 0.2 mg/dL
- Ca (9 h): 10.7 mg/dL
- Cl (9 h): 106.2 meq/L
- DBIL (9 h): 0.004 mg/dL
- GLC (9 h): 222.6 mg/dL
- IP (9 h): 9 mg/dL
- K (9 h): 3.8 meq/L
- LDH (9 h): 264.6 IU/L
- Na (9 h): 141.4 meq/L
- PL (9 h): 160.2 mg/dL
- RALB (9 h): 3.3 g/dL
- TBIL (9 h): 0.012 mg/dL
- TC (9 h): 84 mg/dL
- TG (9 h): 42.2 mg/dL
- TP (9 h): 5.9 g/dL
- gamma-GTP (9 h): 1 IU/L
- TERMINAL_BW (24 h): 192.1 g
- APTT (24 h): 20.8 s
- Bas (24 h): 0%
- Eos (24 h): 1%
- Fbg (24 h): 351.6 mg/dL
- Hb (24 h): 14.3 g/dL
- Ht (24 h): 40.9%
- Lym (24 h): 84.4%
- MCH (24 h): 21.3 pg
- MCHC (24 h): 34.8%
- MCV (24 h): 61.2 fL
- Mono (24 h): 2.2%
- Neu (24 h): 12.4%
- PT (24 h): 16.1 s
- Plat (24 h): 130.3 x10_4/uL
- RBC (24 h): 668.8 x10_4/ul
- Ret (24 h): 6.7%
- WBC (24 h): 68.9 x10_2/uL
- KIDNEY_L (24 h): 0.9 g
- KIDNEY_R (24 h): 0.9 g
- KIDNEY_TOTAL (24 h): 1.8 g
- LIVER (24 h): 7.7 g
- A/G (24 h): 1.3
- ALP (24 h): 1513.8 IU/L
- ALT (24 h): 44.4 IU/L
- AST (24 h): 121.6 IU/L
- BUN (24 h): 15 mg/dL
- CRE (24 h): 0.2 mg/dL
- Ca (24 h): 10.8 mg/dL
- Cl (24 h): 107.8 meq/L
- DBIL (24 h): 0.008 mg/dL
- GLC (24 h): 187.6 mg/dL
- IP (24 h): 8.8 mg/dL
- K (24 h): 4.2 meq/L
- LDH (24 h): 259.6 IU/L
- Na (24 h): 142.2 meq/L
- PL (24 h): 140.4 mg/dL
- RALB (24 h): 3.2 g/dL
- TBIL (24 h): 0.042 mg/dL
- TC (24 h): 88.6 mg/dL
- TG (24 h): 31.6 mg/dL
- TP (24 h): 5.8 g/dL
- gamma-GTP (24 h): 1 IU/L
